According to patent US7399786B2, “Derivatives of amino acids for treatment of obesity and related disorders” (Bexel Pharmaceuticals, Inc., priority 2005, dated 2008):

Legend:
[1] = High fat diet induced obesity (DIO) model; assay type: in vivo, C57BL/6J male mice; conditions: DIO mice
Description: Six week old C57BL/6J male mice were fed with high fat (60%) diet for 14 days. From day 15 onwards animals were treated with compound 9 at a dose of 50 mg/kg body weight or sibutramine (5 mg/kg bw) for 60 days. All the animals were dosed once daily during morning hours up to day 15. From day 16 to end of the study animals were dosed during evening hours.

IL-6 = IL-6 inhibition in hPBMC, LPS challenge, ELISA; assay type: cell-based, human; conditions: 1 μM, LPS 100 ng/mL for 20 hours
Description: (§1) Cells (1×10^6/mL) were challenged with lipopolysaccharides (LPS) at a concentration of (100 ng/mL) for 20 hours. Cell supernatant was analyzed for the presence of IL-6 and IL-1β by antibody directed enzyme-linked immunoassay (R & D Systems, MN, USA).

IL-1β = IL-1β inhibition in hPBMC, LPS challenge, ELISA; assay type: cell-based, human; conditions: 1 μM, LPS 100 ng/mL for 20 hours
Description: as §1

LPS induced NO = assay: Inhibition of LPS induced NO in mouse peritoneal macrophages; assay type: cell-based; conditions: compound 1 hour then LPS 10 μg/mL for 48 hrs
Description: Mouse peritoneal macrophages were isolated by injecting warm PBS in the peritoneum and cells were tapped out with syringe and stored in a tube. After two washes with PBS, cells were plated in 96 well plates and incubated with compound 9 for 1 hour and then challenged with LPS (10 μg/mL) for 48 hrs. Supernatant was assayed for NO by ELISA kit (R&D Biosystems).

3T3-L1 cells = assay: PPARγ agonist induced adipocyte differentiation, Oil red O staining; assay type: cell-based, mouse; conditions: 11 days
Description: Adipogenesis is defined as the production of fat laden adipocytes from fibroblast cells. All known PPARγ agonists induce adipogenesis after a long term of treatment. […] Cells were cultured for 11 days and every 48 h fresh drug was given while changing the media.

[2] = Hypoglycemic effect in normal lean mice; assay type: in vivo, C57BL/6J lean male mice; conditions: 50 mg/kg body weight for 60 days, measured every third day
Description: C57BL/6J lean male mice were fed, ad libitum, with laboratory rodent diet and purified water. Animals were treated with compound 9 at a dose of 50 mg/kg body weight for 60 days. Blood glucose was measured with an ACCUCHECK® glucose meter every third day during morning hours. No change in blood glucose levels was observed.

[3] = 50 mg/kg for 60 days, compared to control animals

Row | SMILES | bodyweight gain ([1]; 5 mg/kg bw once daily for 60 days) | inhibition of IL-6 (IL-6) | inhibition of IL-1β (IL-1β) | NO production (LPS induced NO) | adipocyte differentiation (adipogenesis), compound alone (3T3-L1 cells; 10 μM alone, Oil red O) | adipogenesis induced by PPARγ agonist, combined treatment (3T3-L1 cells; compound 10 μM mixed with rosiglitazone 1 μM) | body weight ([1]; 50 mg/kg body weight once daily for 60 days) | oral glucose tolerance ([1]; 50 mg/kg for 60 days) | free fatty acid levels [1, 3] | triglyceride levels [1, 3] | blood glucose levels [2]
1 | CC(C)CC(N(C)C)C1(c2ccc(Cl)cc2)CCC1 (centres unmarked) [Sibutramine, reference compound] | Reduced Bodyweight Gain |  |  |  |  |  |  |  |  |  | 
2 | CN(C)C(=O)[C@@H](N)Cc1ccc(Oc2ccc(CCC(=O)NO)cc2)cc1.Cl [compound 9, L-2-amino-3-{4-[4-(2-hydroxycarbamoylethyl)-phenoxy]-phenyl}-N,N-dimethylpropionamide hydrochloride] |  | inhibition | inhibition | doses dependently inhibited NO production | not adipogenic | blocks the adipogenesis process induced by PPARγ agonist | lowered body weight | improved | significantly lowered | significantly lowered | No change
